Experimental data taken from ChEMBL document CHEMBL2046359, “Novel tricyclic indeno[2,1-d]pyrimidines with dual antiangiogenic and cytotoxic activities as potent antitumor agents” (Bioorg Med Chem, 2012).
Active and inactive are the calls of the source. No cut-off for these calls is given here.

How the values were obtained:
A-431 = assay: Antiproliferative activity against human A431 cells after 48 hrs by CYQUANT assay; format: functional, cell-based; settings: A-431, 48 h
[1] = target: T1, Dihydroorotate dehydrogenase (Plasmodium falciparum, UniProt Q54A96); assay: Inhibition of Plasmodium falciparum DHODH
T1 sequence (Q54A96 whole entry): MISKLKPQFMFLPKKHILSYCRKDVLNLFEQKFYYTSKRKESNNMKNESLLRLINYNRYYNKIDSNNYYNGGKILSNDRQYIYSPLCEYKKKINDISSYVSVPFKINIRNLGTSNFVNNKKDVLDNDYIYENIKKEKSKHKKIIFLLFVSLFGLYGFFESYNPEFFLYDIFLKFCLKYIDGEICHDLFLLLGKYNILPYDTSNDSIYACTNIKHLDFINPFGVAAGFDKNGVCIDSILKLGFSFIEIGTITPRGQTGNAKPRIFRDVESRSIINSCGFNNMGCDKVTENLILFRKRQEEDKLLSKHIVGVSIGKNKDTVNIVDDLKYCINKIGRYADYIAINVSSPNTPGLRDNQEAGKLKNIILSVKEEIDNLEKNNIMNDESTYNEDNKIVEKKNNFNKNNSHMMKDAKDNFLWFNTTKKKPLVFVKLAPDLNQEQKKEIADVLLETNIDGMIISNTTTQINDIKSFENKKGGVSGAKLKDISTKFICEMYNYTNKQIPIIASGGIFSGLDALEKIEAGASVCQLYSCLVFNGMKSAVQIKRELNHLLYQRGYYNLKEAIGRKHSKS

[2] = target: Epidermal growth factor receptor (Homo sapiens, UniProt P00533); format: cell-based, A-431
[3] = target: Dihydroorotate dehydrogenase (quinone), mitochondrial (Homo sapiens, UniProt Q02127); assay: Inhibition of human DHODH
[4] = Antiangiogenic activity in VEGF/bFGF-stimulated chicken embryo after 48 hrs by CAM assay; format: functional, Gallus gallus
[5] = target: Vascular endothelial growth factor receptor 2 (Homo sapiens, UniProt P35968); format: cell-based, U-251
RXF 393 = assay: cells; settings: Homo sapiens
K562 = assay: cells; settings: Homo sapiens
EKVX = assay: cells; settings: Homo sapiens
IGROV-1 = assay: cells; settings: Homo sapiens
SW-620 = assay: cells; settings: Homo sapiens
HOP-92 = assay: cells; settings: Homo sapiens
SF-539 = assay: cells; settings: Homo sapiens
Mus musculus [6] = assay: Toxicity in NCr nu/nu mouse allografted with mouse B16F10 cells assessed as weight loss at 35 mg/kg, ip administered three times a week for 4 weeks; format: organism-based, B16-F10; set-up: dose 35 mg/kg, route intraperitoneal; settings: in vivo, 672 h
UACC-257 = assay: cells; settings: Homo sapiens
HOP-62 = assay: cells; settings: Homo sapiens
SK-MEL-5 = assay: cells; settings: Homo sapiens
CAKI-1 = assay: cells; settings: Homo sapiens
cells [7] = settings: Homo sapiens, Hs-578T
A498 = assay: cells; settings: Homo sapiens
RPMI-8226 = assay: cells; settings: Homo sapiens
B16-F10 [8] = assay: Antitumor activity against mouse B16F10 cells allografted in NCr nu/nu mouse assessed as inhibition of tumor angiogenesis at 35 mg/kg, ip administered three times weekly for 2 weeks
HCT-15 = assay: cells; settings: Homo sapiens
NCI-H522 = assay: cells; settings: Homo sapiens
SF-268 = assay: cells; settings: Homo sapiens
OVCAR-8 = assay: cells; settings: Homo sapiens
MDA-MB-435 = assay: cells; settings: Homo sapiens
[9] = target: T2, Bifunctional dihydrofolate reductase-thymidylate synthase (Toxoplasma gondii, UniProt Q07422); assay: Inhibition of Toxoplasma gondii DHFR
T2 sequence (Q07422 whole entry): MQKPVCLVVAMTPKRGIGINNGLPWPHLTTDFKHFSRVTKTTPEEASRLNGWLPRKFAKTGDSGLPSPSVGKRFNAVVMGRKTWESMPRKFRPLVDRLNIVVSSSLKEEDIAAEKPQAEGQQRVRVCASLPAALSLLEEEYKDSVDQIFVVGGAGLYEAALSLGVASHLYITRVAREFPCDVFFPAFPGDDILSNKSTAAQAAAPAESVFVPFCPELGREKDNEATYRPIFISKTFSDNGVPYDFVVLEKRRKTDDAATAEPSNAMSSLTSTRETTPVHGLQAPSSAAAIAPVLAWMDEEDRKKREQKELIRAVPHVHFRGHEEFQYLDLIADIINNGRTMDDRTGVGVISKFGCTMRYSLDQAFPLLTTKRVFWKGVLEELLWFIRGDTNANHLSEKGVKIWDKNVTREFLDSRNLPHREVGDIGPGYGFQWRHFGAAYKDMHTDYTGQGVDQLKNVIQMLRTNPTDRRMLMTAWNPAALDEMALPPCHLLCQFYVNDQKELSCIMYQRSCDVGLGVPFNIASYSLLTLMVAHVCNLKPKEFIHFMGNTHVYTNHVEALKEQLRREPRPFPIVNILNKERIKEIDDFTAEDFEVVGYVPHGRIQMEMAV

LOX IMVI = assay: cells; settings: Homo sapiens
A549 = assay: cells; settings: Homo sapiens
B16-F10 [10] = assay: Antitumor activity against mouse B16F10 cells allografted in NCr nu/nu mouse assessed as tumor growth reduction at 35 mg/kg, ip administered three times weekly for 2 weeks
T47D = assay: cells; settings: Homo sapiens
[11] = Inhibition of Escherichia coli thymidylate synthase
OVCAR-4 = assay: cells; settings: Homo sapiens
Dihydrofolate reductase = target: T3, Dihydrofolate reductase (Homo sapiens, UniProt P00374)
T3 sequence (P00374 whole entry): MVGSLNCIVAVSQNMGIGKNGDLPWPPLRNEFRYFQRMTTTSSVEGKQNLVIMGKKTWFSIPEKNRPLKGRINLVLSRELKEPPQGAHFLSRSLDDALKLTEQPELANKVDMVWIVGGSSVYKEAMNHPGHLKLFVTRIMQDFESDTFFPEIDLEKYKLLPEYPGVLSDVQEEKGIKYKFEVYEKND

SNB-75 = assay: cells; settings: Homo sapiens
KM12 = assay: cells; settings: Homo sapiens
SK-MEL-2 = assay: cells; settings: Homo sapiens
ACHN = assay: cells; settings: Homo sapiens
SK-MEL-28 = assay: cells; settings: Homo sapiens
B16-F10 [12] = assay: Antitumor activity against mouse B16F10 cells allografted in NCr nu/nu mouse assessed as decrease in tumor metastasis at 35 mg/kg, ip administered three times weekly for 2 weeks
NCI-H226 = assay: cells; settings: Homo sapiens
SF-295 = assay: cells; settings: Homo sapiens
M14 = assay: cells; settings: Homo sapiens
DU-145 = assay: cells; settings: Homo sapiens
UO-31 = assay: cells; settings: Homo sapiens
SR = assay: cells; settings: Homo sapiens
UACC-62 = assay: cells; settings: Homo sapiens
SK-OV-3 = assay: cells; settings: Homo sapiens
SNB-19 = assay: cells; settings: Homo sapiens
MOLT-4 = assay: cells; settings: Homo sapiens
HL-60(TB) = assay: cells; settings: Homo sapiens
NCI-H460 = assay: cells; settings: Homo sapiens
TK-10 = assay: cells; settings: Homo sapiens
SN12C = assay: cells; settings: Homo sapiens
PC-3 = assay: cells; settings: Homo sapiens
Malme-3M = assay: cells; settings: Homo sapiens
Thymidylate synthase = Thymidylate synthase (Homo sapiens, UniProt P04818); assay: Inhibition of human thymidylate synthase
HCT-116 = assay: cells; settings: Homo sapiens
[13] = target: T2, Bifunctional dihydrofolate reductase-thymidylate synthase; assay: Inhibition of Toxoplasma gondii thymidylate synthase
OVCAR-3 = assay: cells; settings: Homo sapiens
NCI-H322M = assay: cells; settings: Homo sapiens
MCF7 = assay: cells; settings: Homo sapiens
MDA-MB-231 = assay: cells; settings: Homo sapiens
NCI-H23 = assay: cells; settings: Homo sapiens
U-251 = assay: cells; settings: Homo sapiens
cells [14] = settings: Homo sapiens, NCI/ADR-RES
BT-549 = assay: cells; settings: Homo sapiens
786-0 = assay: cells; settings: Homo sapiens
COLO 205 = assay: cells; settings: Homo sapiens
CCRF-CEM = assay: cells; settings: Homo sapiens
Mus musculus [15] = assay: Toxicity in NCr nu/nu mouse allografted with mouse B16F10 cells at 35 mg/kg, ip administered three times a week for 4 weeks; format: organism-based, B16-F10; set-up: dose 35 mg/kg, route intraperitoneal; settings: in vivo, 672 h
[16] = target: Platelet-derived growth factor receptor beta (Homo sapiens, UniProt P09619); assay: Inhibition of PDGFRbeta in human SF539 cells pretreated for 60 mins measured after 10 mins by ELISA
Platelet-derived growth factor receptor beta, sequence (P09619 whole entry): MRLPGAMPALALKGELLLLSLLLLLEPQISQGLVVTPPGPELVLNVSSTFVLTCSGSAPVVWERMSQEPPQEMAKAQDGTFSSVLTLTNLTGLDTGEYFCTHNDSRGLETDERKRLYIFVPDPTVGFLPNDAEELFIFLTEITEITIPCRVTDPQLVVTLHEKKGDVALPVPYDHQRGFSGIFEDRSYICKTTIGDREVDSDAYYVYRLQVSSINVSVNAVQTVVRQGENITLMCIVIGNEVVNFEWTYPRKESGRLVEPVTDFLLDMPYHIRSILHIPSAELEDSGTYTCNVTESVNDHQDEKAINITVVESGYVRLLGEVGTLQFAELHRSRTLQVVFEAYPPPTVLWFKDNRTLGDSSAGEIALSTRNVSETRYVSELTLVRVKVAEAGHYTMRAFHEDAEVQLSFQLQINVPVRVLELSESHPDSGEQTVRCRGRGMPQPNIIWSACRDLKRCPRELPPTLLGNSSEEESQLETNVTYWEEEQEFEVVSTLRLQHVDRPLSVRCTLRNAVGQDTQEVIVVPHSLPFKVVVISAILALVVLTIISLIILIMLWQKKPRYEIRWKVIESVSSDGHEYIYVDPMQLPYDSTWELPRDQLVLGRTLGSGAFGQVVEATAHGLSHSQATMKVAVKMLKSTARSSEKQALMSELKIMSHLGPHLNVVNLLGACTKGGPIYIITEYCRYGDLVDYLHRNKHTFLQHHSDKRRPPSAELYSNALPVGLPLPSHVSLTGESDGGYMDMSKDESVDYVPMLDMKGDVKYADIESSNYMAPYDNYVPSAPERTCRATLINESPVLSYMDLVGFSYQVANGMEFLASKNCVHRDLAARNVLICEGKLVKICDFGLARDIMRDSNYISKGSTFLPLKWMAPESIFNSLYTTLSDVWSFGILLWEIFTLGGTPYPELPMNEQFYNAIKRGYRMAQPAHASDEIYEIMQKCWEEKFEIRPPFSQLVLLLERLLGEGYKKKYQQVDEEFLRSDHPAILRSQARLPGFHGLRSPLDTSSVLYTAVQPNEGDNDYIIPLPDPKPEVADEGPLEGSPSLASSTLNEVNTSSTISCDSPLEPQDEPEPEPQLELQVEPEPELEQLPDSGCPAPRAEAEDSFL

Vascular endothelial growth factor receptor 2, sequence (P35968 whole entry): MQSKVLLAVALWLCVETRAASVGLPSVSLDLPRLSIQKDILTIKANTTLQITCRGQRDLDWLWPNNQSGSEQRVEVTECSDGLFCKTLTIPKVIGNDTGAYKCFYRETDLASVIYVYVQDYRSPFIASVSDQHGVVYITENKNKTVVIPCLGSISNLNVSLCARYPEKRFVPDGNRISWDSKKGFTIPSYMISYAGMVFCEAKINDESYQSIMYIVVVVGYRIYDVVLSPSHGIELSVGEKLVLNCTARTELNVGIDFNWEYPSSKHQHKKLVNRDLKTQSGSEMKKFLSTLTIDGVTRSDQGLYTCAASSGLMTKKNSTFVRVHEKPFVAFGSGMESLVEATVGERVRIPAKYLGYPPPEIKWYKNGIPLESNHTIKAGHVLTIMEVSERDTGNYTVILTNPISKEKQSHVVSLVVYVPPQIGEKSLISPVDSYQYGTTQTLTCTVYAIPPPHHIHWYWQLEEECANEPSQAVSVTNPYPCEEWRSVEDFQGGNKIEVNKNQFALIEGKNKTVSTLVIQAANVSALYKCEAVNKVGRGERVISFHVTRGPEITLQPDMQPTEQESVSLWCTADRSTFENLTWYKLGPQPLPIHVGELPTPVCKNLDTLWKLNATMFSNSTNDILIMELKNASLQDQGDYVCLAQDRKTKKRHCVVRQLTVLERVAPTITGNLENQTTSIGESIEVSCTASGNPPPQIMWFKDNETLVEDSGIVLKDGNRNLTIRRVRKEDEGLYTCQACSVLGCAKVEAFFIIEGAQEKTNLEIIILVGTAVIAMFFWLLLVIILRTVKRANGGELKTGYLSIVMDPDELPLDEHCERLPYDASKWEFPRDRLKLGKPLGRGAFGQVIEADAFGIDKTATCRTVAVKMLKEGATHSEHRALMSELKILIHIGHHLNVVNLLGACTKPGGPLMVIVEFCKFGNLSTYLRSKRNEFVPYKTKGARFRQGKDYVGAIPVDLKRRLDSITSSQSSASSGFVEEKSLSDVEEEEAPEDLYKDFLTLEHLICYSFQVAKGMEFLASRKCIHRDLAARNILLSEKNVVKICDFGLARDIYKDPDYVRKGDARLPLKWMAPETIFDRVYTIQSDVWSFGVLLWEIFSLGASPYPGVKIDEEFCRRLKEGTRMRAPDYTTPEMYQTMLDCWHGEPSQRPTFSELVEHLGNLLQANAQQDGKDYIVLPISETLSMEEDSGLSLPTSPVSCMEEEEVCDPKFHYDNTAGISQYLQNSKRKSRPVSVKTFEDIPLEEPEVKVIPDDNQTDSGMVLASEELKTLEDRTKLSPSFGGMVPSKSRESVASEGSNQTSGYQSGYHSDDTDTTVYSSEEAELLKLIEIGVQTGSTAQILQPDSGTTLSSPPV
Epidermal growth factor receptor, sequence (P00533 whole entry): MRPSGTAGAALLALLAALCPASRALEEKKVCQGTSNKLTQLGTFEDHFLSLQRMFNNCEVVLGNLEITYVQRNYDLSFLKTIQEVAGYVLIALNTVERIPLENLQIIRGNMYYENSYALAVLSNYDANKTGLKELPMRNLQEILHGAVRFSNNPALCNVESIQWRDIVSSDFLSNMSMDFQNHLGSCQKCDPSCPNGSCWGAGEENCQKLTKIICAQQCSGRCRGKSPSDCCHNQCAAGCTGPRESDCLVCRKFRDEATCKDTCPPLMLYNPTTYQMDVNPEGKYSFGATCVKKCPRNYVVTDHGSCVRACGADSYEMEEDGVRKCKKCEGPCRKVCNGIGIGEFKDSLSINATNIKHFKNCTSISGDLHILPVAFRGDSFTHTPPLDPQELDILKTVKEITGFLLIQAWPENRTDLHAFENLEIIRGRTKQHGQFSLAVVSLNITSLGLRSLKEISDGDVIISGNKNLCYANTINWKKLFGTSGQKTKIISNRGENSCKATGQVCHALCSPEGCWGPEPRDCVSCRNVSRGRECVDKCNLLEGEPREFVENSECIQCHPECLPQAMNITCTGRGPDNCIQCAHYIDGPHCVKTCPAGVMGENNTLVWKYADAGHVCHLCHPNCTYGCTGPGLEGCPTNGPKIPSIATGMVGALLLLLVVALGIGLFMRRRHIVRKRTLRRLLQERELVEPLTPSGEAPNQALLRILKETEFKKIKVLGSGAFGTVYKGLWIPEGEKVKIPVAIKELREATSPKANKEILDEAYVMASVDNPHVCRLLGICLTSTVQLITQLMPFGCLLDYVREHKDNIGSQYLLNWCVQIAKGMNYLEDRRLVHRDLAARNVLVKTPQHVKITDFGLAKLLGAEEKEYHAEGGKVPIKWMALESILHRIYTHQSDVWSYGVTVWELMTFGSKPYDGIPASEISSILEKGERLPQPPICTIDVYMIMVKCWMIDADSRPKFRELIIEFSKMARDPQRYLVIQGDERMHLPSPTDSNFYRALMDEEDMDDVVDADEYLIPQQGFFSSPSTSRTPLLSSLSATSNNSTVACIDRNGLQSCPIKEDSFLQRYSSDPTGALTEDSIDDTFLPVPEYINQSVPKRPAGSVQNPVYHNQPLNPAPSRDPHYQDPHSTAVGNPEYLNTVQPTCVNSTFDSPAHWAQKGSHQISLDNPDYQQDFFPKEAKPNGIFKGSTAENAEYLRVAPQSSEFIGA
Dihydroorotate dehydrogenase (quinone), mitochondrial, sequence (Q02127 whole entry): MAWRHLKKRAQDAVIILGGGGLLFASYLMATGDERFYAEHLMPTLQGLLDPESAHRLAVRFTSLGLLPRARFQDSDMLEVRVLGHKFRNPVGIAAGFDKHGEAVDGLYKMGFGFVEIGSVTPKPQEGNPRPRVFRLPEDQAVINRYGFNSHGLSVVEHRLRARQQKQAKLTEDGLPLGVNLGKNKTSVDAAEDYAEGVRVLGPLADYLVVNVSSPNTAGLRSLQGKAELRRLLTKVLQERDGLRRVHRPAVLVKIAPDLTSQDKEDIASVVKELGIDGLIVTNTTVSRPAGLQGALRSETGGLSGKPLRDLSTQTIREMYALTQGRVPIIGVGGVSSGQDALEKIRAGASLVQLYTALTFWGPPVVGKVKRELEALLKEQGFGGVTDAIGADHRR
Thymidylate synthase, sequence (P04818 whole entry): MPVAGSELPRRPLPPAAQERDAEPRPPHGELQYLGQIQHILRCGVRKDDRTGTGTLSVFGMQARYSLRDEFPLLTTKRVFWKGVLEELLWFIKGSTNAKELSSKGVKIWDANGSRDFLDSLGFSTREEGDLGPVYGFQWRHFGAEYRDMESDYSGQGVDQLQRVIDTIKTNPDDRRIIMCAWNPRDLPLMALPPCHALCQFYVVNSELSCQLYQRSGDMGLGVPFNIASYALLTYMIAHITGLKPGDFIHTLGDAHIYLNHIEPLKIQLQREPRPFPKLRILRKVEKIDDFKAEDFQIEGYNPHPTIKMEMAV

## COc1cccc(Nc2nc(N)nc3c2-c2ccccc2C3)c1
A-431
  IC50: 13.9 µM
[1]
  IC50: > 200 µM
[2]
  IC50: > 200 µM
[3]
  IC50: > 200 µM

## CC(C)c1ccccc1Nc1nc(N)nc2c1-c1ccccc1C2
A-431
  IC50: 126 µM
[4]
  IC50: 2.12 µM
[5]
  IC50: > 200 µM
[2]
  IC50: > 200 µM

## Nc1nc2c(c(Nc3ccc(Cl)cc3)n1)-c1ccccc1C2
RXF 393
  GI50: 2910 nM
K562
  GI50: 366 nM
A-431
  IC50: 9.7 µM
EKVX
  GI50: 2710 nM
IGROV-1
  GI50: 287 nM
SW-620
  GI50: 63 nM
HOP-92
  GI50: 18.1 µM
SF-539
  GI50: 381 nM
Mus musculus [6]
  Activity: Non-toxic
UACC-257
  GI50: 84.5 nM
HOP-62
  GI50: 654 nM
SK-MEL-5
  GI50: 513 nM
CAKI-1
  GI50: 1080 nM
Cells [7]
  GI50: 2220 nM
A498
  GI50: 2490 nM
[1]
  IC50: > 200 µM
RPMI-8226
  GI50: 489 nM
B16-F10 [8]
  Activity: Active
HCT-15
  GI50: 434 nM
NCI-H522
  GI50: 622 nM
SF-268
  GI50: 86.2 nM
OVCAR-8
  GI50: 216 nM
MDA-MB-435
  GI50: 554 nM
[9]
  IC50: > 16 µM
LOX IMVI
  GI50: 308 nM
A549
  GI50: 43.4 nM
B16-F10 [10]
  growth inhibition (GI): Active
T47D
  GI50: 2900 nM
[11]
  IC50: > 14 µM
OVCAR-4
  GI50: 2090 nM
Dihydrofolate reductase
  IC50: > 16 µM
SNB-75
  GI50: 5.03 µM
KM12
  GI50: 330 nM
SK-MEL-2
  GI50: 558 nM
ACHN
  GI50: 3.42 µM
[5]
  IC50: > 200 µM
SK-MEL-28
  GI50: 1510 nM
B16-F10 [12]
  Activity: inactive
NCI-H226
  GI50: 2140 nM
SF-295
  GI50: 547 nM
M14
  GI50: 431 nM
DU-145
  GI50: 212 nM
UO-31
  GI50: 790 nM
SR
  GI50: 484 nM
UACC-62
  GI50: 641 nM
SK-OV-3
  GI50: 2090 nM
SNB-19
  GI50: 113 nM
MOLT-4
  GI50: 66.1 nM
HL-60(TB)
  GI50: 150 nM
NCI-H460
  GI50: 19.3 nM
TK-10
  GI50: 2150 nM
SN12C
  GI50: 189 nM
PC-3
  GI50: 715 nM
Malme-3M
  GI50: > 10 µM
Thymidylate synthase
  IC50: > 14 µM
[3]
  IC50: > 200 µM
HCT-116
  GI50: 38.1 nM
[13]
  IC50: > 14 µM
OVCAR-3
  GI50: 216 nM
NCI-H322M
  GI50: 1350 nM
MCF7
  GI50: 73.4 nM
MDA-MB-231
  GI50: 641 nM
NCI-H23
  GI50: 565 nM
U-251
  GI50: 184 nM
Cells [14]
  GI50: 787 nM
BT-549
  GI50: 2830 nM
786-0
  GI50: 514 nM
COLO 205
  GI50: 638 nM
CCRF-CEM
  GI50: 31.2 nM
Mus musculus [15]
  Activity: Non-toxic

## Nc1nc2c(c(Nc3ccc(F)cc3)n1)-c1ccccc1C2
A-431
  IC50: 50.3 µM
[4]
  IC50: 46.7 µM
[16]
  IC50: 5.9 µM
[5]
  IC50: 89.3 µM
[2]
  IC50: 276 µM
